Data as given in US20200270576A1, “Ex Vivo Maintenance and Expansion of Stem Cells” (priority 2017, published 2020).

Tests used:
[1] = system: bone marrow cells; experiment: TMI fluorescence (unfolded protein) in bone marrow cells from treated mice; format: in vivo; conditions: bone marrow cells isolated from treated mice
Protocol: FIG. 6A-D depict the validation of tetraphenylethene maleimide (TMI) as a probe to measure unfolded protein. FIG. 6A depicts that TMI is a cell permeable dye that fluoresces upon binding to cysteine thiols. The free thiol side chains of non-disulphide bonded hydrophobic cysteines are typically buried within the core of globular proteins, but can be exposed in unfolded proteins. FIG. 6B depicts that TMI fluorescence was higher in bone marrow cells after a 4 hour incubation at 42° C. as compared to 37° C. Since heat shock induces protein unfolding, this validated TMI as a means to quantify unfolded protein. FIG. 6C depicts that TMI fluorescence in bone marrow cells was increased after treatment with the proteasome inhibitor bortezomib. […] FIG. 6B-D validated that TMI can be used to quantify unfolded protein (protein quality) in hematopoietic cells.
As a complement to evaluating protein quality by assessing changes in ubiquitylated protein, a quantitative orthogonal assay to measure protein quality was developed. Tetraphenylethene maleimide (TMI) is a cell permeable dye that fluoresces upon binding to cysteine thiols. […] We adapted TMI to quantify unfolded proteins within single hematopoietic cells by flow cytometry. We validated TMI by assessing the effect of heat shock, which induces protein unfolding, on TMI fluorescence in bone marrow cells. […]

[2] = system: Hsf1; experiment: Hsf1 expression and localization by immunofluorescence in cultured HSCs; format: cell-based, mouse; conditions: 10 days culture; 17-AAG 5 nM, HSF1A 8 uM final concentration
Excerpt: FIG. 14 depicts representative immunofluorescence staining of HSCs cultured for 10 days in the presence or absence of 17-AAG or HSF1A. Addition of 17-AAG or HSF1A to culture medium increased Hsf1 accumulation in the nucleus of cultured HSCs. Hsf1-deficient HSCs and cells stained without primary antibody (Neg Con) are shown as controls.
Since Hsf1 promoted HSC maintenance and protein homeostasis in vitro (FIG. 13), we investigated whether increasing Hsf1 expression or activity would further enhance HSC maintenance. […] Hsf1 can become active as a transcription factor when it translocates to the nucleus. We thus tested whether inhibitors of HSP90 or TRiC would promote Hsf1 accumulation in the nucleus of cultured HSCs by culturing HSCs for 10 days in the presence or absence of 17-AAG (HSP90 inhibitor; 5 nM final concentration) or HSF1A (TRiC inhibitor; 8 uM final concentration), and assessed Hsf1 expression and localization by immunofluorescence.

[3] = system: HSCs; experiment: Competitive transplantation of HSCs cultured 10 days, with serial transplantation; format: cell-based, murine
Excerpt: FIG. 16A-B depict that HSC functionality is maintained and expanded in vitro by interventions that can induce/activate Hsf1. FIG. 16A depicts donor cell engraftment 16 weeks after transplantation of 10 HSCs cultured for 10 days in the presence or absence of an HSP90 inhibitor (17-AAG) or TRiC inhibitor (HSF1A) or from 10 freshly isolated HSCs. Cells were transplanted with 2×10^5 freshly isolated congenic bone marrow cells (n=3 independent experiments with 3-5 recipients/condition/experiment). […] Addition of either 17-AAG or HSF1A increased the reconstituting potential of cultured HSCs as compared to both control cultured and freshly isolated HSCs.
To test if HSCs depend on Hsf1 for their maintenance in vitro, we conditionally deleted Hsf1 from HSCs, cultured them for 10 days and assessed their long-term multilineage reconstituting activity in competitive transplantation assays. The assay for testing HSC function is to assess their capacity to give long-term (16+ week) multilineage (B cell, T cell and myeloid cell) reconstitution of the blood system of an irradiated transplant recipient. A competitive transplantation assay provides a quantitative readout of HSC regenerative activity.
Modest declines in proteostasis impair HSC maintenance in vivo. […] This raises the possibility that increasing Hsf1 activity could promote HSC maintenance in vitro by enhancing proteostasis capacity. To test if HSP90 inhibitors or TRiC inhibitors promote HSC maintenance in vitro, purified HSCs were sorted from young adult murine bone marrow (CD45.1^+) into 96-well plates (10/well) containing our HSC medium supplemented with 17-AAG or HSF1A. HSCs were cultured for 10 days and competitively transplanted with 2×10^5 freshly isolated congenic bone marrow cells (CD45.2^+) into irradiated mice (CD45.2^+). Recipient mice were bled monthly (for 4 months) to assess levels of donor-derived CD45.1^+ hematopoietic cells. Self-renewal capacity of HSCs was assessed by serially transplanting hematopoietic cells from the primary recipients into secondary irradiated recipients (3×10^6 cells/recipient). […] Similar results are expected for other HSP90 or TRiC inhibitors.
To test if HSP90 inhibitors or TRiC inhibitors enable HSC expansion in vitro, purified HSCs were sorted from young adult bone marrow (CD45.1^+) into 96-well plates (10/well) containing HSC medium supplemented with 17-AAG or HSF1A. HSCs were cultured for 10 days and competitively transplanted with 2×10^5 freshly isolated congenic bone marrow cells (CD45.2^+) into irradiated mice (CD45.2^+). At the same time, 10 freshly isolated HSCs were transplanted with 2×10^5 freshly isolated congenic bone marrow cells into irradiated mice. Recipient mice were bled monthly (for 4 months) to assess levels of donor-derived CD45.1^+ hematopoietic cells. Self-renewal capacity of HSCs was assessed by serially transplanting hematopoietic cells (3×10^6 cells/recipient) into secondary irradiated recipients. […] Similar results are expected for other HSP90 or TRiC inhibitors.

[4] = system: Hsf1-deficient and control HSCs; experiment: Competitive transplantation of cultured wild-type and Hsf1-deficient HSCs; format: cell-based, mice; conditions: 12 weeks after transplantation
Excerpt: FIG. 17 depicts that Hsf1 is required for 17-AAG and HSF1A to enhance HSC maintenance and expansion in vitro. Donor cell engraftment 12 weeks after transplantation of 10 wild-type and Hsf1-deficient HSCs cultured for 10 days in the presence or absence of 17-AAG, HSF1A or DMSO. Cells were transplanted with 2×10^5 freshly isolated congenic bone marrow cells (n=7-9; *P<0.05, **P<0.01).
We tested whether the positive effects of 17-AAG and HSF1A on HSC maintenance/expansion in vitro were mediated by Hsf1. Purified Hsf1-deficient and control HSCs were sorted from adult bone marrow (CD45.2^+) into 96-well plates (10/well) containing HSC medium supplemented with 17-AAG, HSF1A or vehicle (DMSO). HSCs were cultured for 10 days and competitively transplanted with 2×10^5 freshly isolated congenic bone marrow cells (CD45.1^+) into irradiated mice (CD45.1^+). Recipient mice were bled monthly to assess levels of donor-derived CD45.2^+ hematopoietic cells. […] However, the positive effect of 17-AAG and HSF1A was lost with Hsf1-deficient HSCs (FIG. 17).

[5] = system: primary bone marrow cells; experiment: OPP incorporation (protein synthesis) by flow cytometry; format: cell-based, mouse; conditions: pre-treatment with translation inhibitor; primary bone marrow cells in culture
Protocol: FIG. 1A-D depict quantification of protein synthesis in hematopoietic cells. FIG. 1A depicts how 0-propargyl-puromycin (OPP) was used to quantify protein synthesis within cells. OPP is a puromycin analog with a terminal alkyne group that mimics an aminoacyl-tRNA and integrates into nascent polypeptides. Azide-alkyne cycloaddition can covalently link a fluorescently tagged azide molecule to OPP that has been incorporated into new peptides. FIG. 1B depicts that when OPP was added to cell culture medium, its incorporation in primary bone marrow cells was detected and quantified by flow cytometry. […] FIG. 1C depicts OPP incorporation in CD150^+CD48^−Lineage^−Sca1^+ckit^+ (CD150^+CD48^−LSK) HSCs and unfractionated bone marrow cells one hour after administration in vivo. FIG. 1D depicts OPP incorporation (protein synthesis rates) in HSCs, multipotent progenitors (MPP), common myeloid progenitors (CMP), granulocyte macrophage progenitors (GMP), granulocytes (GR) megakaryocyte erythroid progenitors (MEP), CD71^+Ter119^+ erythroid progenitors (E), pro-B, pre-B, IgM^+ B cells (IgM), CD3^+ T cells (T), and unfractionated bone marrow cells (BM). […] Statistical significance relative to HSCs was assessed using a repeated-measures one way ANOVA followed by Dunnett's test (n=9; **P<0.01, ***P<0.001).

[6] = system: CD48-LSK HSCs/MPPs; experiment: Western blot of ubiquitylated protein in cultured HSCs; format: cell-based, mouse; conditions: added to culture medium; HSCs 4 and 18 hours in vitro
Protocol: FIG. 10A-C depicts increased protein synthesis and reduced protein quality within HSCs in vitro. FIG. 10A depicts relative protein synthesis rates of HSCs normalized to bone marrow cells in vivo (n=6) and after 4 hours in vitro (n=5). Statistical significance was assessed with a two-tailed Student's t-test (***P<0.001). FIGS. 10B and 10C depict western blots that examined ubiquitylated protein levels in freshly isolated or cultured CD48^−LSK HSCs/MPPs. […] The accumulation of ubiquitylated protein was prevented by addition of the translation inhibitor cycloheximide (CHX) to culture medium.
The accumulation of ubiquitylated protein could be blocked by adding the translation inhibitor cycloheximide to the culture medium (FIG. 10B, 10C).

## CC(C)C[C@H](NC(=O)[C@H](Cc1ccccc1)NC(=O)c1cnccn1)B(O)O [Bortezomib]
[1]
  increase in TMI fluorescence as compared to cells from vehicle treated controls: ~30%

## CCc1ccc(S(=O)(=O)Nc2cc(-c3cccs3)nn2-c2ccccc2)cc1 [HSF1A]
[2]
  Hsf1 abundance in the nucleus of cultured HSCs: increase Hsf1 abundance in the nucleus
[3]; 10 HSCs cultured 10 days vs 10 freshly isolated HSCs
  donor cell reconstitution vs recipients of freshly isolated HSCs: higher levels of donor cell reconstitution as compared to recipients of freshly isolated HSCs
[3]; 10 HSCs cultured 10 days, with 2x10^5 congenic bone marrow cells, 16 weeks
  donor cell reconstitution in primary recipients vs HSCs cultured without agent: significantly higher levels of donor cell reconstitution as compared to controls
[3]; primary and secondary transplants, 16 week, >0.5% B-, T-, myeloid cells
  fraction of recipients with long-term multilineage reconstitution vs HSCs cultured without agent: greater fraction
[3]; secondary transplants
  fraction of recipients with long-term multilineage reconstitution vs freshly isolated HSCs: significantly greater fraction
[3]; serial transplant, 3x10^6 cells/recipient
  donor cell reconstitution in secondary recipients vs HSCs cultured without agent: even more pronounced
[4]; 10 HSCs cultured 10 days
  donor cell reconstitution vs controls (DMSO), control HSCs: higher levels of donor cell reconstitution as compared to controls
[4]; Hsf1-deficient HSCs cultured 10 days
  positive effect on donor cell reconstitution with Hsf1-deficient HSCs: lost

## C[C@@H]1C[C@@H]([C@H](O)CC2CC(=O)NC(=O)C2)C(=O)[C@@H](C)C1 [cycloheximide]
[5]
  incorporation of OPP (new protein synthesis): inhibited
[6]
  accumulation of ubiquitylated protein: blocked
